Values of other authors, collected in patent US11874283B2, “Method and compositions for the treatment and detection of endothelin-1 related kidney diseases” (MOREHOUSE SCHOOL OF MEDICINE, priority 2010, dated 2024).
Ends that are not written are not given here.

Test system: ET-1 ELISA
Conditions: as determined by the manufacturer

Substance | Cross reactivity
big ET-1: biologically inactive 38-amino acid precursor of ET-1 (CSCSSLMDKECVYFCHLDIIWVNTPEHVVPYGLGSPRS; ends and bridges not checked; cysteine pairing not given here; UniProt P05305 53-90, looked up) | less than 1%
ET-3: endothelin peptide cross-reacting in the ET-1 ELISA (CTCFTYKDKECVYYCHLDIIW; ends and bridges not checked; cysteine pairing not given here; UniProt P14138 97-117, looked up) | 14%
ET-2: endothelin peptide cross-reacting in the ET-1 ELISA (CSCSSWLDKECVYFCHLDIIW; ends and bridges not checked; cysteine pairing not given here; UniProt P20800 49-69, looked up) | 45%
